Results on 55 compounds are retold here after patent publication US20070270418A1, “Inhibitors of P38 and Methods of Using the Same” (priority 2003, published 2007).

Molecules are shown by their SMILES. Where two headings read alike, the source gives them in different places.

The target of one experiment is T1, p38α (Homo sapiens, UniProt Q16539).
T1 construct: p38 MAP Kinases are recombinant human full-length proteins with an amino-terminal GST fusion; GST (N); purchased Upstate (Charlottesville, Va.); host or cells: E. coli
T1 sequence (Q16539 whole entry, the tested form may be a part): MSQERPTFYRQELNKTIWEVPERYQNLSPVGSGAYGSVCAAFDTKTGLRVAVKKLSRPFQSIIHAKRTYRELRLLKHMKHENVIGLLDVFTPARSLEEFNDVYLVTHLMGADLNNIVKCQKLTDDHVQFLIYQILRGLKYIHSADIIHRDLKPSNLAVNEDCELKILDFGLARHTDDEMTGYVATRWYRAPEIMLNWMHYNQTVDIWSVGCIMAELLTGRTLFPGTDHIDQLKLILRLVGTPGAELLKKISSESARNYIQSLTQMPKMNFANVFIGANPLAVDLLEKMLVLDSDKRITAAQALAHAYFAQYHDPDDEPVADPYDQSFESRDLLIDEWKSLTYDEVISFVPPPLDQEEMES
Briefly: p38 MAP Kinase assay, ATF2 phosphorylation (ELISA). In kind it is biochemical. As to conditions: 40 μM ATP. An outline of the steps: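 Recombinant full-length GST-tagged human p38α (6 ng) pre-incubated 15 min at room temperature with compound, then reacted 30 min at 37° C with 40 μM ATP and 1.25 μM GST-ATF2 (aa 19-96) in HEPES pH 7.5/MgCl2 buffer. EDTA stop; ATF2 Thr69 phosphorylation measured by anti-phospho-ATF2 ELISA at 450 nm.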
(In an ELISA, binding on a coated surface is turned into a signal by an enzyme label.)

In experiment [1] the test system is TNFα release from THP-1 cells. Briefly: TNFα release from LPS-stimulated THP-1 cells. In kind it is cell-based. An outline of the steps:
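THP-1 cells (10^6 cells/ml on resuspension) preincubated with compound 30 min at 37°C, 5% CO2, final DMSO ≤0.5%, then stimulated with 10 μg/ml LPS for 18 h (TNFα). Supernatants collected for TNFα analysis.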

Where [2] appears, read: Homo sapiens, THP-1, 18 h, LPS 10 μg/ml, 18 hours, read-out: TNFα (THP-1) IC50.
[3] abbreviates: LPS 10 μg/ml, 18 hours, read-out: TNFα (THP-1) IC50.
Where [4] appears, read: Homo sapiens, THP-1, 18 h, read-out: TNFα (THP-1) IC50 (nM).

Turning to `NC(=O)[C@H](Cc1ccccc1)Nc1nccc(-c2c(-c3ccc(F)cc3)nc3occn23)n1` [CXXVIII], the half-maximal inhibitory concentration (IC50) (commonly the concentration that gives 50% inhibition) at p38α was 71 nM; in experiment [1] (setting [2]), 1390 nM.
The corresponding values for `CC(C)(CO)CNc1nccc(-c2c(-c3ccc(F)cc3)nc3sccn23)n1` [CCXX] are 1.56 nM and 2.41 nM.
As for `OCCCNc1nccc(-c2c(-c3ccc(F)cc3)nc3occn23)n1` [XXV], the half-maximal inhibitory concentration (IC50) was determined as 21.5 nM at p38α and 466 nM in experiment [1] (setting [2]).
The corresponding values for `NS(=O)(=O)c1ccc(CCNc2nccc(-c3c(-c4ccc(F)cc4)nc4occn34)n2)cc1` [CXXII] are 5.44 nM and 22.7 nM.
The corresponding values for `CS(=O)(=O)N1CCC(Nc2nccc(-c3c(-c4ccc(F)cc4)nc4sccn34)n2)CC1` [CCLXI] are 1.31 nM and 3.08 nM.
The like results for `CCC(O)CNc1nccc(-c2c(-c3ccc(F)cc3)nc3occn23)n1` (centres unmarked) [XVII] were, in that order, 15.7 nM and 15.9 nM.
As for `Oc1ccc(C(O)CNc2nccc(-c3c(-c4ccc(F)cc4)nc4occn34)n2)cc1` (centres unmarked) [LXXX], the results for the 50% inhibitory concentration (IC50) (against p38α; in experiment [1] (setting [2])) were 82.5 nM and 88.4 nM, respectively.
On to `CS(=O)(=O)N1CCC(Nc2nccc(-c3c(-c4ccccc4Cl)nc4occn34)n2)CC1` [CCCXVIII], for which the values for the half-maximal inhibitory concentration (IC50) (against p38α; in experiment [1] (setting [2])) were 1 nM and 18.2 nM, respectively.
As for `CC[C@@H](CO)Nc1nccc(-c2c(-c3ccc(F)cc3)nc3sccn23)n1` [CCXIX], the 50% inhibitory concentration (IC50) against p38α was 3.03 nM; in experiment [1] (setting [2]), 6.84 nM.
The like results for `O=C(Nc1ccc(F)cc1)N1CCC(Nc2nccc(-c3c(-c4ccc(F)cc4)nc4sccn34)n2)CC1` [CCLVI] were, in that order, 1.07 nM and 9.68 nM.
The like results for `OCCCCCCNc1nccc(-c2c(-c3ccc(F)cc3)nc3occn23)n1` [LV] were, in that order, 23.1 nM and 25 nM.
The corresponding values for `COCC(C)Nc1nccc(-c2c(-c3ccc(F)cc3)nc3occn23)n1` (centres unmarked) [XXXI] are 1.6 nM and 10.3 nM.
Regarding `Nc1ccc(CCNc2nccc(-c3c(-c4ccc(F)cc4)nc4sccn34)n2)cc1` [CCXLIII], the IC50 against p38α stood at 2.19 nM; in experiment [1] (setting [2]), 19.5 nM.
As for `CCNC(=O)N1CCC(Nc2nccc(-c3c(-c4ccc(F)cc4)nc4sccn34)n2)CC1` [CCLV], the IC50 on p38α was determined as 2.12 nM; in experiment [1] (setting [2]), 10.8 nM.
`Fc1ccc(CCNc2nccc(-c3c(-c4ccc(F)cc4)nc4sccn34)n2)cc1` [CCXLVII]: the values for the half-maximal inhibitory concentration (IC50) (against p38α; in experiment [1] (setting [2])) were 4.84 nM and 33.2 nM, respectively.
The like results for `CCCC[C@@H](CO)Nc1nccc(-c2c(-c3ccc(F)cc3)nc3occn23)n1` [LXV] were, in that order, 86.6 nM and 26.3 nM.
In the case of `Fc1ccc(-c2nc3sccn3c2-c2ccnc(NCC3CC3)n2)cc1` [CCXIII], the IC50 against p38α was found to be 13.3 nM; in experiment [1] (setting [2]), 5.63 nM.
For `Fc1ccc(-c2nc3occn3c2-c2ccnc(NCc3nc4ccccc4[nH]3)n2)cc1` [CXIV], the IC50 on p38α amounted to 183 nM; in experiment [1] (setting [2]), 913 nM.
In the case of `CCCNc1nccc(-c2c(-c3ccc(F)cc3)nc3occn23)n1` [XXVIII], the values for the IC50 (against p38α; in experiment [1] (setting [2])) were 3.47 nM and 15.3 nM, respectively.
For `OC(CNc1nccc(-c2c(-c3ccc(F)cc3)nc3occn23)n1)c1ccccc1` (centres unmarked) [LVII], the figures for the half-inhibitory concentration (IC50) (on p38α; in experiment [1] (setting [2])) were 8.96 nM and 58.5 nM, respectively.
The corresponding values for `CC(=O)N1CCC(Nc2nccc(-c3c(-c4ccccc4C)nc4occn34)n2)CC1` [CCCV] are 4.8 nM and 41 nM.
The corresponding values for `Oc1cccc(C(O)CNc2nccc(-c3c(-c4ccc(F)cc4)nc4occn34)n2)c1` (centres unmarked) [LXXV] are 5.09 nM and 26.6 nM.
Consider `O=C1CCCN1CCCNc1nccc(-c2c(-c3ccc(F)cc3)nc3occn23)n1` [LXVII], for which the IC50 came out at 33.4 nM on p38α and 177 nM in experiment [1] (setting [2]).
For `COCCCNc1nccc(-c2c(-c3ccc(F)cc3)nc3occn23)n1` [XCVII], the IC50 against p38α came out at 1.41 nM; in experiment [1] (setting [2]) it was 12.1 nM.
The like results for `Fc1ccc(-c2nc3occn3c2-c2ccnc(NCCN3CCN(Cc4ccccc4)CC3)n2)cc1` [CXXV] were, in that order, 258 nM and 1360 nM.
Take `CC(O)CNc1nccc(-c2c(-c3ccc(F)cc3)nc3occn23)n1` (centres unmarked) [XVI]: the values for the IC50 (against p38α; in experiment [1] (setting [3])) were 37.1 nM and 19.3 nM, respectively.
Turning to `Clc1ccccc1-c1nc2occn2c1-c1ccnc(N[C@@H]2CN3CCC2CC3)n1` [CCXCI], the IC50 against p38α was found to be 11.2 nM; in experiment [1] (setting [4]), 77 nM.
Consider `COc1cccc(-c2nc3sccn3c2-c2ccnc(N[C@H](CO)C(C)C)n2)c1` [CC], for which the results for the half-inhibitory concentration (IC50) (against p38α; in experiment [1] (setting [2])) were 112 nM and 93.8 nM, respectively.
For the compound `OC1CCN(c2nccc(-c3c(-c4ccc(F)cc4)nc4occn34)n2)CC1` [XCVIII], the figures for the IC50 (on p38α; in experiment [1] (setting [2])) were 134 nM and 951 nM, respectively.
The corresponding values for `CS(=O)(=O)c1ccc(CNc2nccc(-c3c(-c4ccc(F)cc4)nc4occn34)n2)cc1` [LXXXI] are 1230 nM and 1230 nM.
Take `CN1[C@@H]2CC[C@H]1C[C@@H](Nc1nccc(-c3c(-c4ccc(F)cc4Cl)nc4occn34)n1)C2` [CCXCVI]: the IC50 against p38α was 3.6 nM; in experiment [1] (setting [4]), 15.5 nM.
Turning to `CC(C)[C@@H](CO)Nc1nccc(-c2c(-c3ccc(F)c(F)c3)nc3sccn23)n1` [CCLXXV], the IC50 is 191 nM against p38α and 43.3 nM in experiment [1] (setting [3]).
Consider `C[C@@H](CO)CCNc1nccc(-c2c(-c3ccc(F)cc3)nc3occn23)n1` [XLVII], for which the IC50 at p38α stood at 31.4 nM; in experiment [1] (setting [2]) it was 13.7 nM.
For `OCC(CO)(CO)Nc1nccc(-c2c(-c3ccc(F)cc3)nc3occn23)n1` [LXXXVI], the IC50 against p38α was determined as 227 nM; in experiment [1] (setting [2]), 150 nM.
Regarding `Fc1ccc(-c2nc3occn3c2-c2ccnc(NC3CC3)n2)cc1` [XVIII], the concentration for half-maximal inhibition (IC50) was found to be 0.44 nM on p38α and 11.2 nM in experiment [1] (setting [2]).
The corresponding values for `COc1ccc(CNc2nccc(-c3c(-c4ccc(F)cc4)nc4occn34)n2)cc1OC` [LXXIV] are 72.8 nM and 519 nM.
`Cc1ccccc1-c1nc2occn2c1-c1ccnc(NC2C[C@H]3CC[C@@H](C2)N3C)n1` (some centres unmarked) [CCCXX]: the IC50 at p38α is 13.9 nM; in experiment [1] (setting [4]), 23.7 nM.
On to `OC1(CNc2nccc(-c3c(-c4ccc(F)cc4)nc4sccn34)n2)CCCc2ccccc21` (centres unmarked) [CCXLVIII], for which the 50% inhibitory concentration (IC50) turned out to be 8.39 nM against p38α and 20.8 nM in experiment [1] (setting [2]).
The corresponding values for `OCCCCCNc1nccc(-c2c(-c3ccc(F)cc3)nc3occn23)n1` [XLVI] are 23.1 nM and 17.2 nM.
The corresponding values for `Fc1ccc(-c2nc3sccn3c2-c2ccnc(NCCN3CCOCC3)n2)cc1` [CCXLIX] are 31.6 nM and 20.3 nM.
The corresponding values for `C[C@@H](O)[C@@H](CO)Nc1nccc(-c2c(-c3ccc(F)cc3)nc3occn23)n1` [CVII] are 63.8 nM and 112 nM.
Regarding `CC(C)(C)OC(=O)N1CCCCC1CNc1nccc(-c2c(-c3ccc(F)cc3)nc3sccn23)n1` (centres unmarked) [CCXXXVII], the IC50 at p38α was 107 nM; in experiment [1] (setting [2]), 113 nM.
As to `CN(C)CC(C)(C)CNc1nccc(-c2c(-c3ccc(F)cc3)nc3sccn23)n1` [CCXLIV], the values for the IC50 (against p38α; in experiment [1] (setting [2])) were 11.4 nM and 5.98 nM, respectively.
The like results for `C[C@H](CO)Nc1nccc(-c2c(-c3ccc(F)cc3)nc3occn23)n1` [CV] were, in that order, 3.09 nM and 8.67 nM.
The corresponding values for `CC(C)(C)OC(=O)N1CCC(Nc2nccc(-c3c(-c4ccc(F)cc4)nc4sccn34)n2)CC1` [CCXXXIII, 4-{4-[6-(4-fluorophenyl)-imidazo[2,1-b]thiazol-5-yl]-pyrimidin-2-ylamino}-piperidine-1-carboxylic acid tert-butyl ester] are 2.24 nM and 76.9 nM.
Take `CC(=O)N1CCC(Nc2nccc(-c3c(-c4ccccc4Cl)nc4occn34)n2)CC1` [CCCI]: the IC50 amounted to 2.3 nM against p38α and 38.5 nM in experiment [1] (setting [2]).
Regarding `CC(C)(C)OC(=O)N1CCC(Nc2nccc(-c3c(-c4ccc(F)cc4F)nc4occn34)n2)CC1` [CCLXXXIII], the IC50 was determined as 1.1 nM on p38α and 52.7 nM in experiment [1] (setting [2]).
The corresponding values for `FC(F)(F)c1cccc(-c2nc3occn3c2-c2ccnc(NC3CCNCC3)n2)c1` [CCCXIII] are 21.2 nM and 111 nM.
For `CS(=O)(=O)c1nccc(-c2c(-c3ccccc3)nc3sccn23)n1` [CXXXII], the half-maximal inhibitory concentration (IC50) on p38α is 373 nM; in experiment [1] (setting [2]), above 10000 nM.
As to `CC(C)(C)OC(=O)N1CCCC(CNc2nccc(-c3c(-c4ccc(F)cc4)nc4sccn34)n2)C1` (centres unmarked) [CCXXXVI], the concentration for half-maximal inhibition (IC50) on p38α worked out at 81.8 nM; in experiment [1] (setting [2]), 162 nM.
Consider `COCCNc1nccc(-c2c(-c3ccc(F)cc3)nc3occn23)n1` [XX], for which the half-maximal inhibitory concentration (IC50) came to 24.3 nM against p38α and 65 nM in experiment [1] (setting [2]).
The like results for `OC1CCCCC1Nc1nccc(-c2c(-c3ccc(F)cc3)nc3occn23)n1` (centres unmarked) [CX] were, in that order, 21.8 nM and 15 nM.
The like results for `CC(C)(CO)Nc1nccc(-c2c(-c3ccc(F)cc3)nc3sccn23)n1` [CCXLI] were, in that order, 2.81 nM and 5.18 nM.
The like results for `CC(O)CNc1nccc(-c2c(-c3ccc(F)cc3)nc3occn23)n1` (centres unmarked) [XV] were, in that order, 30.7 nM and 18.8 nM.
For `Cc1ccccc1-c1nc2occn2c1-c1ccnc(NC2CCN(C(=O)OC(C)(C)C)CC2)n1` [CCLXXXVIII], the IC50 worked out at 4.8 nM at p38α and 211 nM in experiment [1] (setting [2]).
